Reference: ChEMBL document CHEMBL3632568, “Synthesis and biological evaluation of polyalthic acid derivatives for the treatment of neglected diseases” (Bioorg Med Chem Lett, 2015)
≈ marks a conversion by molar mass, not a printed value. Calls of active or inactive are those of the source. The rule behind the calls is not given here.

How the values were obtained:
Format in all cases: functional, organism-based
Leishmania donovani [1] = assay: Antileishmanial activity against promastigote stage of Leishmania donovani assessed as growth inhibition at 0.0128 to 40 ug/ml after 72 hrs by Alamar Blue assay
Leishmania donovani [2] = assay: Antileishmanial activity against axenic amastigote stage of Leishmania donovani assessed as growth inhibition after 72 hrs by Alamar Blue assay
Trypanosoma brucei = assay: Antitrypanosomal activity against trypamastigote stage of Trypanosoma brucei assessed as growth inhibition after 72 hrs by Alamar Blue assay

SMILES	inhibition (Leishmania donovani [1])	IC50 (Leishmania donovani [2])	IC90 (Leishmania donovani [2])	IC50 (Trypanosoma brucei)	IC90 (Trypanosoma brucei)
C=C1CC[C@H]2[C@@](C)(CCC[C@]2(C)C(=O)NCCCC)[C@@H]1CCc1ccoc1	inactive	5.93 µg/mL (≈ 16 µM)	9.02 µg/mL (≈ 24.3 µM)	6.14 µg/mL (≈ 16.5 µM)	9.13 µg/mL (≈ 24.6 µM)
C=C1CC[C@H]2[C@@](C)(CCC[C@]2(C)C(=O)NC2CCCCC2)[C@@H]1CCc1ccoc1	inactive	4.23 µg/mL (≈ 10.6 µM)	8.19 µg/mL (≈ 20.6 µM)	3.58 µg/mL (≈ 9 µM)	8.1 µg/mL (≈ 20.4 µM)
C=C1CC[C@H]2[C@@](C)(CCC[C@]2(C)C(=O)N2CCOCC2)[C@@H]1CCc1ccoc1	inactive	9.9 µg/mL (≈ 25.7 µM)	> 10 µg/mL	4.62 µg/mL (≈ 12 µM)	8.3 µg/mL (≈ 21.5 µM)
C=C1CC[C@H]2[C@@](C)(CCC[C@]2(C)C(=O)NC(C)C)[C@@H]1CCc1ccoc1	inactive	7.04 µg/mL (≈ 19.7 µM)	> 10 µg/mL	2.74 µg/mL (≈ 7.66 µM)	4.9 µg/mL (≈ 13.7 µM)
C=C1CC[C@H]2[C@@](C)(CCC[C@]2(C)C(=O)NCCN(C)C)[C@@H]1CCc1ccoc1	inactive	> 10 µg/mL	> 10 µg/mL	> 10 µg/mL	> 10 µg/mL
C=C1CC[C@H]2[C@@](C)(CCC[C@]2(C)C(=O)NCC2CCCCC2)[C@@H]1CCc1ccoc1	inactive	3.84 µg/mL (≈ 9.33 µM)	7.75 µg/mL (≈ 18.8 µM)	5.75 µg/mL (≈ 14 µM)	8.52 µg/mL (≈ 20.7 µM)
C[C@@]12CCC[C@](C)(C(=O)NCC3CCCCC3)[C@H]1CCC(O)(CO)[C@H]2CCc1ccoc1 (some centres not stated)	inactive	> 10 µg/mL	> 10 µg/mL	6.51 µg/mL (≈ 14.6 µM)	9.15 µg/mL (≈ 20.5 µM)
C=C1CC[C@H]2[C@@](C)(CCC[C@]2(C)C(=O)N(CC)CC)[C@@H]1CCc1ccoc1	inactive	5.12 µg/mL (≈ 13.8 µM)	8.75 µg/mL (≈ 23.5 µM)	5 µg/mL (≈ 13.5 µM)	8.82 µg/mL (≈ 23.7 µM)
C=C1CC[C@H]2[C@@](C)(CCC[C@]2(C)C(=O)NCCOCCO)[C@@H]1CCc1ccoc1	inactive	> 10 µg/mL	> 10 µg/mL	> 10 µg/mL	> 10 µg/mL
C[C@@H]1[C@H](O)[C@@H](C)/C=C/C=C/C=C/C=C/C=C/C=C/C=C/[C@H](O[C@@H]2O[C@H](C)[C@@H](O)[C@H](N)[C@@H]2O)C[C@@H]2O[C@](O)(C[C@@H](O)C[C@@H](O)[C@H](O)CC[C@@H](O)C[C@@H](O)CC(=O)O[C@H]1C)C[C@H](O)[C@H]2C(=O)O [AMPHOTERICIN B]		0.195 µg/mL (≈ 0.211 µM)	0.301 µg/mL (≈ 0.326 µM)	4.52 µg/mL (≈ 4.89 µM)	10.1 µg/mL (≈ 10.9 µM)
C=C1CC[C@H]2[C@@](C)(CCC[C@]2(C)C(=O)NCCOC)[C@@H]1CCc1ccoc1	inactive	6.73 µg/mL (≈ 18 µM)	> 10 µg/mL	2.58 µg/mL (≈ 6.91 µM)	4.71 µg/mL (≈ 12.6 µM)
C=C1CC[C@H]2[C@@](C)(CCC[C@]2(C)C(=O)NC2CC2)[C@@H]1CCc1ccoc1	inactive	8.21 µg/mL (≈ 23.1 µM)	> 10 µg/mL	5.62 µg/mL (≈ 15.8 µM)	8.96 µg/mL (≈ 25.2 µM)
COCCNC(=O)[C@@]1(C)CCC[C@@]2(C)[C@H](CCc3ccoc3)C(O)(CO)CC[C@@H]21 (some centres not stated)	inactive	> 10 µg/mL	> 10 µg/mL	7.68 µg/mL (≈ 18.8 µM)	> 10 µg/mL
N=C(N)c1ccc(OCCCCCOc2ccc(C(=N)N)cc2)cc1 [PENTAMIDINE]		1.89 µg/mL (≈ 5.54 µM)	5.81 µg/mL (≈ 17.1 µM)	0.002 µg/mL (≈ 0.00587 µM)	0.003 µg/mL (≈ 0.00881 µM)
C[C@@]12CCC[C@](C)(C(=O)N3CCOCC3)[C@H]1CCC(O)(CO)[C@H]2CCc1ccoc1 (some centres not stated)	inactive	> 10 µg/mL	> 10 µg/mL	6.25 µg/mL (≈ 14.9 µM)	> 10 µg/mL
C=C1CC[C@H]2[C@@](C)(CCC[C@]2(C)C(=O)O)[C@@H]1CCc1ccoc1		8.68 µg/mL (≈ 27.4 µM)	> 10 µg/mL	3.87 µg/mL (≈ 12.2 µM)	8.12 µg/mL (≈ 25.7 µM)
C=C1CC[C@H]2[C@@](C)(CCC[C@]2(C)C(=O)N2CCN(C)CC2)[C@@H]1CCc1ccoc1	inactive	> 10 µg/mL	> 10 µg/mL	6.85 µg/mL (≈ 17.2 µM)	> 10 µg/mL
C=C1CC[C@H]2[C@@](C)(CCC[C@]2(C)C(=O)NC2CCOCC2)[C@@H]1CCc1ccoc1	inactive	> 10 µg/mL	> 10 µg/mL	9.88 µg/mL (≈ 24.7 µM)	> 10 µg/mL
